The values that follow come from PMC10794144, “A novel antibiotic class targeting the lipopolysaccharide transporter” (Nature, 2024).

In brackets after ≈: the same amount, converted by molar mass.

In one test the test system is S. aureus ATCC 29213. Put plainly: organism not typed. An outline of the steps: (§1)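 Broth microdilution per CLSI M07/M100, with inocula diluted from a 0.5 McFarland suspension in CAMHB, or LB for A. baylyi. MIC was read as the lowest concentration inhibiting growth by eye or beyond which OD600 stopped decreasing.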
Another test has as its system A. baumannii. Put plainly: microbe, parasite or virus in culture. The method in brief:
as §1

The test system of the next test is E. coli ATCC 25922. In words: microbe, parasite or virus in culture. The method in brief: as §1

In the case of `CN1C(=O)[C@H](CCCN)NC(=O)[C@H](CCCN)NCc2ccccc2Sc2ccccc2CNC(=O)[C@@H]1Cc1c[nH]c2ccccc12` [RO7036668], the MIC with S. aureus ATCC 29213 (Gram-positive bacteria and yeast) was 32 to 64 µg/mL (≈ 48.8 to 97.6 µM); against S. aureus ATCC 29213 (Staphylococcus aureus, ATCC29213, CAMHB, mode of at least three replicates (RO7036668 one replicate)), 32 µg/mL (≈ 48.8 µM); against A. baumannii (Acinetobacter baumannii, ATCC19606, ATCC 19606, CAMHB, MCPs read at 80% growth inhibition), 4 µg/mL (≈ 6.1 µM); in the test with E. coli ATCC 25922 (CAMHB, mode of at least three replicates (RO7036668 one replicate)), greater than 64 µg/mL; in the test with E. coli ATCC 25922 (Escherichia coli, ATCC25922), greater than 64 µg/mL. The MIC range against A. baumannii (10 MDR isolates, CAMHB, MCPs read at 80% growth inhibition) fell in the range of 1 to 16 µg/mL. In the test with A. baumannii (Acinetobacter baumannii), this compound showed an MIC90 of 16 µg/mL (≈ 24.4 µM).
